Measurements from patent publication US20210094933A1, “RAPAFUCIN DERIVATIVE COMPOUNDS AND METHODS OF USE THEREOF” (The Johns Hopkins University, priority 2019, published 2021).

What was measured:
Type in all cases: cell-based
A549 = experiment: Cell proliferation assay (Prolif.), IC50 relative to DMSO control; settings: A549 cells; for Prolif, A549: IC50 class relative to DMSO control
Experimental: (§1) Cell Proliferation Assay (Prolif.) Guo et al. (2018) Nat. Chem. 11:254-63. Specific cell lines are indicated in each assay and cultured in complete growth media. Activity is scored according to the IC50 values relative to DMSO control. “Low” indicates an IC50 greater than 600 nM, “Medium” indicates an IC50 between 300 nM and 600 nM “High” indicates an IC50 less than 300 nM. “Rel.Uptake” refers to uptake activity characterization relative to a single concentration assay. “Low” indicates a response greater than 0.6 times the activity relative to DMSO, “Medium” indicates a response between 0.6 and 0.3 times the activity relative to DMSO, “High” indicates a response less than 0.3 times the activity relative to DMSO.

[1] = Cell proliferation assay, single concentration, response relative to DMSO; cell line indicated in each table; settings: A549 cells
Experimental: as §1

[2] = Nucleoside uptake assay, single concentration (Rel.Uptake), response relative to DMSO; cell line indicated in each table; settings: 293 T cells, nucleoside uptake at single concentration
293T = experiment: Nucleoside uptake assay (3H-Thymidine), IC50 relative to DMSO control; settings: 293T cells; Table 13
Experimental: Nucleoside Uptake Assay (uptake). Nuceloside uptake assays were performed with using 3H-Thymidine as described in Guo et al. (2018) Nat. Chem, 11:254-63. Specific cell lines are indicated in each assay and cultured in complete growth media. Activity is scored according to the IC50 values relative to DMSO control. “Low” indicates an IC50 greater than 600 nM, “Medium” indicates an IC50 between 300 nM and 600 nM “High” indicates an IC50 less than 300 nM. “Rel.Uptake” refers to uptake activity characterization relative to a single concentration assay. “Low” indicates a response greater than 0.6 times the activity relative to DMSO, “Medium” indicates a response between 0.6 and 0.3 times the activity relative to DMSO, “High” indicates a response less than 0.3 times the activity relative to DMSO.

Structure (SMILES) | Prolif, A549 (A549) | Rel. Prolif., A549 [1] | Rel. Uptake, 293 T [2] | IC50 (A549; Homo sapiens) | IC50 (293T)
CCCC[C@H]1C(=O)N[C@@H](Cc2ccc3ccccc3c2)C(=O)N(C)[C@@H](COC(C)(C)C)C(=O)NCC(=O)N(C)CCC=CC(=O)OCC(C)(C)C(=O)C(=O)N2CCCC[C@H]2C(=O)O[C@H](CCc2cc(OC)c(OC)cc2F)c2cccc(c2)OCC(=O)N1C [Compound 569] | medium | medium |  |  | 
CCCC[C@H]1C(=O)N[C@@H](Cc2ccc3ccccc3c2)C(=O)N(C)[C@@H](COC(C)(C)C)C(=O)NCC(=O)N(C)CCC=CC(=O)OCC(C)(C)C(=O)C(=O)N2CCCC[C@H]2C(=O)O[C@H](CCc2ccc(OC)c(OC)c2)c2cccc(c2F)OCC(=O)N1C [Compound 1563] | high |  | high |  | 
C=C1NCC(=O)N(C)CC/C=C\C(=O)OCC(C)(C)C(=O)C(=O)N2CCCC[C@H]2C(=O)O[C@H](CCc2ccc(OC)c(OC)c2)c2cccc(c2)NC(=O)CCC(=O)N(C)[C@@H](CC(C)C)C(=O)N[C@H](Cc2ccccc2)C(=O)N(C)[C@H]1[C@@H](C)CC [Compound 1592] |  |  | Low (“Low” indicates a response greater than 0.6 times the activity relative to DMSO) | < 300 nM | 
CCCC[C@H]1C(=O)N[C@@H](Cc2ccc3ccccc3c2)C(=O)N(C)[C@@H](COC(C)(C)C)C(=O)NCC(=O)N(C)CCC=CC(=O)OCC(C)(C)C(=O)C(=O)N2CCN(C(=O)OCC3c4ccccc4-c4ccccc43)C[C@H]2C(=O)O[C@H](CCc2ccc(OC)c(OC)c2)c2cccc(c2)OCC(=O)N1C [Compound 571] | low | low |  |  | 
CCCC[C@H]1C(=O)N[C@@H](Cc2ccc3ccccc3c2)C(=O)N(C)[C@@H](COC(C)(C)C)C(=O)NCC(=O)N(C)CCC=CC(=O)OCC(C)(C)C(=O)C(=O)N2CCCC[C@H]2C(=O)O[C@H](CCc2ccc(OC)c(OC)c2)c2cc(ccc2F)OCC(=O)N1C [Compound 573] | low | low |  |  | 
CCCC[C@H]1C(=O)N[C@@H](Cc2ccc3ccccc3c2)C(=O)N(C)[C@@H](COC(C)(C)C)C(=O)NCC(=O)N(C)CCC=CC(=O)OCC(C)(C)C(=O)C(=O)N2CCCC[C@H]2C(=O)O[C@H](CCc2cc(OC)cc(OC)c2OC)c2cccc(c2)OCC(=O)N1C [Compound 563] | low | low |  |  | 
CCCC[C@H]1C(=O)N[C@@H](Cc2ccc3ccccc3c2)C(=O)N(C)[C@@H](COC(C)(C)C)C(=O)NCC(=O)N(C)CCC=CC(=O)OCC(C)(C)C(=O)C(=O)N2CCCC[C@H]2C(=O)O[C@H](CCc2cc(OC)c(OC)cc2O)c2cccc(c2)OCC(=O)N1C [Compound 567] | medium | medium |  |  | 
CCCC[C@H]1C(=O)N[C@@H](Cc2ccc3ccccc3c2)C(=O)N(C)[C@@H](COC(C)(C)C)C(=O)NCC(=O)N(C)CCC=CC(=O)OCC(C)(C)C(=O)C(=O)N2CCCC[C@H]2C(=O)O[C@H](CCc2ccc(OC)c(OC)c2F)c2cccc(c2)OCC(=O)N1C [Compound 570] | medium | medium |  |  | 
CCCC[C@H]1C(=O)N[C@@H](Cc2ccc3ccccc3c2)C(=O)N(C)[C@@H](COC(C)(C)C)C(=O)NCC(=O)N(C)CCC=CC(=O)OCC(C)(C)C(=O)C(=O)N2CCCC[C@H]2C(=O)O[C@H](CCc2cc(OC)c(OC)c(OC)c2)c2cccc(c2)OCC(=O)N1C [Compound 560] | medium | medium |  |  | 
CCCC[C@H]1C(=O)N[C@@H](Cc2ccc3ccccc3c2)C(=O)N(C)[C@@H](COC(C)(C)C)C(=O)NCC(=O)N(C)CCC=CC(=O)OCC(C)(C)C(=O)C(=O)N2CCCC[C@H]2C(=O)O[C@H](CCc2ccc(OC)c(O)c2)c2cccc(c2)OCC(=O)N1C [Compound 1564] | high |  | high |  | 
CCCC[C@H]1C(=O)C[C@@H](Cc2ccc3ccccc3c2)C(=O)N(C)[C@@H](COC(C)(C)C)C(=O)NCC(=O)N(C)CCC=CC(=O)OCC(C)(C)C(=O)C(=O)N2CCCC[C@H]2C(=O)O[C@H](CCc2ccc(OC)c(OC)c2OC)c2cccc(c2)OCC(=O)N1C [Compound 561] | medium | medium |  |  | 
CCCC[C@H]1C(=O)N[C@@H](Cc2ccc3ccccc3c2)C(=O)N(C)[C@@H](COC(C)(C)C)C(=O)NCC(=O)N(C)CCC=CC(=O)OCC(C)(C)C(=O)C(=O)N2CCCC[C@H]2C(=O)O[C@H](CCc2ccc(OC)c(OC)c2)c2ccc(F)c(c2)OCC(=O)N1C [Compound 576] | medium | medium |  |  | 
CCCC[C@H]1C(=O)N[C@@H](Cc2ccc3ccccc3c2)C(=O)N(C)[C@@H](COC(C)(C)C)C(=O)NCC(=O)N(C)CCC=CC(=O)OCC(C)(C)C(=O)C(=O)N2CCCC[C@H]2C(=O)O[C@H](CCc2cc(F)c(OC)c(OC)c2)c2cccc(c2)OCC(=O)N1C [Compound 568] | medium | medium |  |  | 
CCCC[C@H]1C(=O)N[C@@H](Cc2ccc3ccccc3c2)C(=O)N(C)[C@@H](COC(C)(C)C)C(=O)NCC(=O)N(C)CCC=CC(=O)OCC(C)(C)C(=O)C(=O)N2CCCC[C@H]2C(=O)O[C@H](CCc2cc(O)c(OC)c(OC)c2)c2cccc(c2)OCC(=O)N1C [Compound 566] | medium | medium |  |  | 
CCCC[C@H]1C(=O)N[C@@H](Cc2ccc3ccccc3c2)C(=O)N(C)[C@@H](COC(C)(C)C)C(=O)NCC(=O)N(C)CCC=CC(=O)OCC(C)(C)C(=O)C(=O)N2CCCC[C@H]2C(=O)O[C@H](CCc2c(OC)ccc(OC)c2OC)c2cccc(c2)OCC(=O)N1C [Compound 564] | low | low |  |  | 
CCCC[C@H]1C(=O)N[C@@H](Cc2ccc3ccccc3c2)C(=O)N(C)[C@@H](COC(C)(C)C)C(=O)NCC(=O)N(C)CCC=CC(=O)OCC(C)(C)C(=O)C(=O)N2CCCC[C@H]2C(=O)O[C@H](CCc2ccc(OC)c(OC)c2O)c2cccc(c2)OCC(=O)N1C [Compound 565] | medium | medium |  |  | 
CCCC[C@H]1C(=O)N[C@@H](Cc2ccc3ccccc3c2)C(=O)N(C)[C@@H](COC(C)(C)C)C(=O)NCC(=O)N(C)CCC=CC(=O)OCC(C)(C)C(=O)C(=O)N2CCCC[C@H]2C(=O)O[C@H](CCc2ccc(OC)c(OC)c2)c2cncc(c2)OCC(=O)N1C [Compound 1565] | low |  | low |  | 
CCCC[C@H]1C(=O)N[C@@H](Cc2ccc3ccccc3c2)C(=O)N(C)[C@@H](COC(C)(C)C)C(=O)NCC(=O)N(C)CCC=CC(=O)OCC(C)(C)C(=O)C(=O)N2CCCC[C@H]2C(=O)O[C@H](CCc2cc(OC)c(OC)cc2OC)c2cccc(c2)OCC(=O)N1C [Compound 562] | medium | medium |  |  | 
CCCC[C@H]1C(=O)N[C@@H](Cc2ccc3ccccc3c2)C(=O)N(C)[C@@H](COC(C)(C)C)C(=O)NCC(=O)N(C)CCC=CC(=O)OCC(C)(C)C(=O)C(=O)N2CCN(C)C[C@H]2C(=O)O[C@H](CCc2ccc(OC)c(OC)c2)c2cccc(c2)OCC(=O)N1C [Compound 572] | medium | medium |  |  | 
COc1ccc(CC[C@H]2OC(=O)[C@@H]3CCCCN3C(=O)C(=O)C(C)(C)COC(=O)C=CCCN(C)C(=O)[C@H](CC(C)C)N(C)C(=O)[C@H]3CCCN3C(=O)[C@H](Cc3cccc(NC(C)=O)c3)NC(=O)[C@H](c3ccccc3)NC(=O)CCC(=O)Nc3cccc2c3)cc1OC [Compound 1588] |  |  | High (“High” indicates a response less than 0.3 times the activity relative to DMSO) |  | < 300 nM
COc1ccc(CC[C@H]2OC(=O)[C@@H]3CCCCN3C(=O)C(=O)C(C)(C)COC(=O)C=CCCN(C)C(=O)[C@H](CC(C)C)N(C)C(=O)[C@H]3CCCN3C(=O)[C@H](Cc3ccc(CNC(=O)CN(C)C)cc3)NC(=O)[C@H](c3ccccc3)NC(=O)CCC(=O)Nc3cccc2c3)cc1OC [Compound 1587] |  |  | Low (“Low” indicates a response greater than 0.6 times the activity relative to DMSO) |  | > 600 nM
CCCC[C@H]1C(=O)N[C@@H](Cc2ccc3ccccc3c2)C(=O)N(C)[C@@H](COC(C)(C)C)C(=O)NCC(=O)N(C)CCC=CC(=O)OCC(C)(C)C(=O)C(=O)N2CCCC[C@H]2C(=O)O[C@H](CCc2ccc(OC)c(OC)c2)c2cc(F)cc(c2)OCC(=O)N1C [Compound 574] | low | low |  |  | 
